Source: patent publication US9358262B2, “Use of antioxidant-enriched fermented blueberry extracts in the treatment of diabetes” (priority 2003, dated 2016)
Entries after “also recorded” stand apart in the source; their conditions may differ.

Legend:
[1] = system: LPS/IFN-γ-activated RAW 264.7 gamma NO(−) macrophages; experiment: Inhibition of nitric oxide production (nitrite, Griess reaction) in activated macrophages; assay type: cell-based, mouse; conditions: for Nitrite: 24 h after LPS/IFN-γ; for inhibition at 63 µM: RAW264.7, 63 μM (μM GAE for juices); for inhibition at 125 µM: RAW264.7, 125 μM (μM GAE for juices); for inhibition at 250 µM: RAW264.7, 250 μM (μM GAE for juices); for inhibition at 500 µM: RAW264.7, 500 μM (μM GAE for juices); for Effect on NO production, in words: over the tested concentrations
Description: Cell culture. The mouse monocyte/macrophage cell line RAW 264.7 gamma NO(−) [American Type Culture Collection (ATCC)] was cultured in RPMI-1640 supplemented with 10% (v/v) heat-inactivated FBS, streptomycin ([…]) and penicillin (100 units/ml). All cultures were incubated at 37° C. in a humidified atmosphere with 5% CO2. Cell number was assessed by trypan blue dye exclusion on a Neubauer hemacytometer. Cells were grown to 90% confluence in sterile cell culture flasks and gently detached using a scraper (Fisher Scientific). For phenolic compound treatment tests, cells were cultured in triplicate in Costar flat-bottom cell culture plates (Corning Inc.). Cells were plated at a density of 6×10^5 cells/well in 24-well cell culture plates and grown for 1 h to allow them to attach to the plate. Compounds to be tested were initially dissolved in 10 μl of DMSO, and then RPMI was added to make solutions in a series of concentrations with a dilution factor of 2. The final concentrations of test compound that cells received were 16, 31, 63, 125, 250, and 500 μM, respectively. For berry juices, the final concentrations were 16, 31, 63, 125, 250 and 500 μM GAE, respectively. Cells were supplemented with the test compounds for 1 h before stimulation with 10 ng/ml lipopolysaccharide (LPS) and 10-50 units/ml interferon gamma (IFN-γ). The activated cells were incubated for 24 h and then supernatants were collected to determine nitrite concentration and/or stored at −80° C. for further use. Control cells were grown under identical conditions but were not exposed to the test compounds or LPS/IFN-γ.
Nitric Oxide (NO) Determination. Nitrite concentration was used as an indication of NO production. The procedure for NO determination was based on the Griess reaction. The assay was assessed as in the methods of Wang and Mazza (2002a, 2002b) for cell supernatants supplemented with phenolic compounds or berry juices. In brief, 100 μL of cell culture supernatant or sodium nitrite standard was mixed with an equal volume of Griess reagent [a mixture of 0.1% (w/v) N-(1-naphthyl)-ethylenediamine dihydrochloride and 1% (w/v) sulfanilamide in 5% (v/v) phosphoric acid, the two parts being mixed together within 1 h of use] using a 96-well plate. A set of parallel analyses was also conducted by applying only 100 μL of 2.5% (v/v) phosphoric acid instead of Griess reagent to each of 100 μL of cell supernatants or the mixture of standard sodium nitrite and cyanidin chloride. After 20 min at room temperature, the absorbance at 540 nm was measured using the microtitration reader. The net absorbance of the product of the Griess reaction was obtained by subtracting that of anthocyanins from the total. The absorbance was referred to a nitrite standard curve to determine the nitrite concentration in the supernatants.
Inhibition of Nitric Oxide Production. RAW 264.7 gamma NO(−) cell line was derived from the RAW 264.7 mouse monocyte/macrophage cell line. […] When LPS/IFN-γ was administered to RAW 264.7 gamma (NO−) macrophages, NO production, measured as nitrite, increased dramatically from the basal level of 0 to ≧30 μM after 24 h. To determine the effects of cranberry and blueberry juice and other phenolic compounds on NO production, different concentrations of these compounds (500, 250, 125, 63, and 16 μM) were incubated with the LPS/IFN-γ-activated macrophages (Table 7). Cell viability was assayed to exclude the possibility that the inhibitory effects of phenolic compounds were due to their cytotoxicity. The MTT assay was used for the colorless phenolic compound-treated macrophages, whereas the resazurin assay was used for cranberry and blueberry juice-treated macrophages. […]

[2] = reference phenolic compounds, Fukumoto and Mazza (2000); cited from earlier work
[3] = Mus musculus, read-out: Inhibitory effect (decrease of NO production)

SMILES | Nitrite ([1]; 16 μM (μM GAE for juices)) | Nitrite ([1]; 31 μM (μM GAE for juices)) | Nitrite ([1]; 63 μM (μM GAE for juices)) | Nitrite ([1]; 125 μM (μM GAE for juices)) | Nitrite ([1]; 250 μM (μM GAE for juices)) | Nitrite ([1]; 500 μM (μM GAE for juices)) | inhibition at 16 µM ([1]; Mus musculus, RAW264.7, 16 μM (μM GAE for juices), read-out: Inhibitory effect (decrease of NO production)) [%] | inhibition at 31 µM ([1]; Mus musculus, RAW264.7, 31 μM (μM GAE for juices), read-out: Inhibitory effect (decrease of NO production)) [%] | inhibition at 63 µM [1, 3] [%] | inhibition at 125 µM [1, 3] [%] | inhibition at 250 µM [1, 3] [%] | inhibition at 500 µM [1, 3] [%] | Effect on NO production, in words [1] | Inhibitory effect (decrease of NO production) ([1]; 500 μM (μM GAE for juices), 500 µM) | Antiradical activity [2] | Antiradical power [2]
O=C(/C=C/c1ccc(O)c(O)c1)O[C@@H]1C[C@](O)(C(=O)O)C[C@@H](O)[C@H]1O [Chlorogenic acid] | 37.1 (0.4) μM | 39 (1) μM | 40.4 (1.64) μM | 41.7 (1.7) μM | 47.6 (1.4) μM | 46.6 (1.5) μM | -9.6 | -15.2 | -19.5 | -23.4 | -40.8 | -37.9 | showed no inhibitory effects; also recorded: induced production of NO | – | – | –
O=C(O)c1cc(O)c(O)c(O)c1 [Gallic acid] | 36.2 (3.7) μM | 35.4 (2.9) μM | 29.3 (0.3) μM | 31.1 (5.9) μM | 25.2 (1.5) μM | 22.6 (0.6) μM | – | – | 10.5 | 19 | 23 | 30 | dose-dependent | 30.9 (1.9) % | −6.21 (0.60) | 12.50
